Assay results taken from patent US9738634B2, “Heterocyclic amide compound and herbicide” (SYNGENTA PARTICIPATIONS AG, priority 2013, dated 2017).

Columns and labels:
Type in all cases: in vivo
barnyard grass [1] = assay: Test Example 2: weedkilling efficacy, growth period weed treatment in the submerged state; A: barnyard grass
Protocol: (§1) Weedkilling efficacy test on growth period weed treatment in the submerged state
(§2) Alluvial soil was introduced into 1/10,000 Are Wagner pots, and 4 cm depth submerged conditions were created by addition of water and mixing. Seeds of barnyard grass, bulrush and oval-leafed pondweed were mixed and sown into the aforesaid cups, and the plants were grown by placing in a greenhouse at 25 to 30° C. When the barnyard grass, bulrush and oval-leafed pondweed had reached the 1-2 leaf stage, emulsions of compounds of the present invention prepared according to compounding example 2 were diluted with water to give the specified dosages and applied onto the water surface. 3 weeks after the pesticide treatment the effect on each type of plant was investigated on the basis of the assessment criteria of test example 1.
(§3) A: barnyard grass, B: bulrush, C: oval-leafed pondweed, D: crabgrass, E: green foxtail, F: barnyard grass, G: wild oat, H: black-grass, I: Italian ryegrass, J: common wind-grass, K: Indian mallow, L: redroot pigweed, M: fig-leafed goosefoot, N: chickweed, O: catchweed, p: birds-eye speedwell, a: transplanted rice, b: directly sown rice, c: corn, d: soybean, e: wheat, f: beet, g: rapeseed
(§4) Further, pesticide dosage (g/ha) indicates the concentration regulated such that treatment was with only the stated number of grams (g), when calculated per hectare (ha).

bulrush [2] = assay: Test Example 2: weedkilling efficacy, growth period weed treatment in the submerged state; B: bulrush
Protocol: as §1, §2, §3, §4

transplanted rice = assay: Test Example 1: preemergent weed treatment in the submerged state, effect on crop; a: transplanted rice
Excerpt: (§5) Weedkilling efficacy test on preemergent weed treatment in the submerged state
(§6) Alluvial soil was introduced into 1/10,000 Are Wagner pots, and 4 cm depth submerged conditions were created by addition of water and mixing. Seeds of barnyard grass, bulrush and oval-leafed pondweed were mixed and sown into the aforesaid cups, then 2.5 leaf stage rice seedlings were transplanted. On the sowing day, emulsions of compounds of the present invention prepared according to compounding example 2 were diluted with water to give the specified dosages and applied onto the water surface. The plants were grown after placing the cups in a greenhouse at 25 to 30° C. 3 weeks after the pesticide treatment the effect on each type of plant was investigated on the basis of the following assessment criteria.
as §3, §4

oval-leafed pondweed [3] = assay: Test Example 2: weedkilling efficacy, growth period weed treatment in the submerged state; C: oval-leafed pondweed
Protocol: as §1, §2, §3, §4

bulrush [4] = assay: Test Example 1: weedkilling efficacy, preemergent weed treatment in the submerged state; B: bulrush
Excerpt: as §5, §6, §3, §4

oval-leafed pondweed [5] = assay: Test Example 1: weedkilling efficacy, preemergent weed treatment in the submerged state; C: oval-leafed pondweed
Excerpt: as §5, §6, §3, §4

barnyard grass [6] = assay: Test Example 1: weedkilling efficacy, preemergent weed treatment in the submerged state; A: barnyard grass
Excerpt: as §5, §6, §3, §4

Row | SMILES | A (barnyard grass) weedkilling efficacy grade (barnyard grass [1]; treatment dosage 252 g/ha) | B (bulrush) weedkilling efficacy grade (bulrush [2]; treatment dosage 252 g/ha) | a: transplanted rice, effect on crop grade (transplanted rice; treatment dosage 252 g/ha) | C (oval-leafed pondweed) weedkilling efficacy grade (oval-leafed pondweed [3]; treatment dosage 252 g/ha) | B: bulrush, weed kill grade (bulrush [4]; treatment dosage 252 g/ha) | C: oval-leafed pondweed, weed kill grade (oval-leafed pondweed [5]; treatment dosage 252 g/ha) | A: barnyard grass, weed kill grade (barnyard grass [6]; treatment dosage 252 g/ha) | A (barnyard grass) weedkilling efficacy grade (barnyard grass [1]; treatment dosage 320 g/ha) | B (bulrush) weedkilling efficacy grade (bulrush [2]; treatment dosage 320 g/ha) | a: transplanted rice, effect on crop grade (transplanted rice; treatment dosage 320 g/ha) | C (oval-leafed pondweed) weedkilling efficacy grade (oval-leafed pondweed [3]; treatment dosage 320 g/ha) | B: bulrush, weed kill grade (bulrush [4]; treatment dosage 320 g/ha) | C: oval-leafed pondweed, weed kill grade (oval-leafed pondweed [5]; treatment dosage 320 g/ha) | A: barnyard grass, weed kill grade (barnyard grass [6]; treatment dosage 320 g/ha) | a (transplanted rice) effect on crop grade (transplanted rice; treatment dosage 320 g/ha) | B (bulrush) weedkilling efficacy grade (bulrush [4]; treatment dosage 320 g/ha) | C (oval-leafed pondweed) weedkilling efficacy grade (oval-leafed pondweed [5]; treatment dosage 320 g/ha) | A (barnyard grass) weedkilling efficacy grade (barnyard grass [6]; treatment dosage 320 g/ha)
1 | CC(C)(C(=O)Nc1cc(Cl)cc(Br)n1)N1COCN(c2c(F)cccc2F)C1=O [A-6-02] | 5 (weed kill ratio 90% or more, (practically complete withering)) | 5 (weed kill ratio 90% or more, (practically complete withering)) | 0 (weed kill ratio 5% or less (practically no effect)) | 5 (weed kill ratio 90% or more, (practically complete withering)) | 5 (weed kill ratio 90% or more, (practically complete withering)) | 5 (weed kill ratio 90% or more, (practically complete withering)) | 5 (weed kill ratio 90% or more, (practically complete withering)) |  |  |  |  |  |  |  |  |  |  | 
2 | Cc1cccc(N2COCN(C(C)(C)C(=O)Nc3cc(C(F)(F)F)ccn3)C2=O)c1 [A-6-07] |  |  |  |  |  |  |  | 4 (weed kill ratio 70% or more, less than 90%) | 5 (weed kill ratio 90% or more, (practically complete withering)) | 1 (weed kill ratio 5% or more, less than 20%) | 3 (weed kill ratio 40% or more, less than 70%) | 5 (weed kill ratio 90% or more, (practically complete withering)) | 5 (weed kill ratio 90% or more, (practically complete withering)) | 5 (weed kill ratio 90% or more, (practically complete withering)) |  |  |  | 
3 | Cc1cccc(N2COCN(C(C)(C)C(=O)Nc3cc(Cl)cc(Cl)n3)C2=O)c1 [A-6-08] |  |  |  |  |  |  |  | 5 (weed kill ratio 90% or more, (practically complete withering)) | 5 (weed kill ratio 90% or more, (practically complete withering)) | 0 (weed kill ratio 5% or less (practically no effect)) | 4 (weed kill ratio 70% or more, less than 90%) | 5 (weed kill ratio 90% or more, (practically complete withering)) | 5 (weed kill ratio 90% or more, (practically complete withering)) | 5 (weed kill ratio 90% or more, (practically complete withering)) |  |  |  | 
4 | CC(C)(C(=O)Nc1cc(Cl)cc(Cl)n1)N1COCN(c2c(F)cccc2F)C1=O [A-6-01] | 5 (weed kill ratio 90% or more, (practically complete withering)) | 5 (weed kill ratio 90% or more, (practically complete withering)) | 3 (weed kill ratio 40% or more, less than 70%) | 5 (weed kill ratio 90% or more, (practically complete withering)) | 5 (weed kill ratio 90% or more, (practically complete withering)) | 5 (weed kill ratio 90% or more, (practically complete withering)) | 5 (weed kill ratio 90% or more, (practically complete withering)) |  |  |  |  |  |  |  |  |  |  | 
5 | CC(C)(C(=O)Nc1cc(-c2ccccc2)ccn1)N1COCN(c2ccccc2)C1=O [A-2-49] | 4 (weed kill ratio 70% or more, less than 90%) | 4 (weed kill ratio 70% or more, less than 90%) | 1 (weed kill ratio 5% or more, less than 20%) | 4 (weed kill ratio 70% or more, less than 90%) | 5 (weed kill ratio 90% or more, (practically complete withering)) | 5 (weed kill ratio 90% or more, (practically complete withering)) | 5 (weed kill ratio 90% or more, (practically complete withering)) |  |  |  |  |  |  |  |  |  |  | 
6 | CC(C)(C(=O)Nc1cc(F)nc(F)c1)N1COCN(c2ccccc2)C1=O [A-4-04] |  |  |  |  |  |  |  | 3 (weed kill ratio 40% or more, less than 70%) | 5 (weed kill ratio 90% or more, (practically complete withering)) | 0 (weed kill ratio 5% or less (practically no effect)) | 4 (weed kill ratio 70% or more, less than 90%) | 5 (weed kill ratio 90% or more, (practically complete withering)) | 5 (weed kill ratio 90% or more, (practically complete withering)) | 5 (weed kill ratio 90% or more, (practically complete withering)) |  |  |  | 
7 | Cc1ccc(N2COCN(C(C)(C)C(=O)Nc3cc(Cl)cc(F)n3)C2=O)cc1 [A-6-11] |  |  |  |  |  |  |  | 4 (weed kill ratio 70% or more, less than 90%) | 5 (weed kill ratio 90% or more, (practically complete withering)) | 0 (weed kill ratio 5% or less (practically no effect)) | 5 (weed kill ratio 90% or more, (practically complete withering)) | 5 (weed kill ratio 90% or more, (practically complete withering)) | 5 (weed kill ratio 90% or more, (practically complete withering)) | 5 (weed kill ratio 90% or more, (practically complete withering)) |  |  |  | 
8 | CC1=C(c2ccccc2)C(=O)N(C(C)(C)C(=O)Nc2cc(Cl)cc(-c3ccccc3)n2)CO1 [B-2-45] |  |  |  |  |  |  |  | 4 (weed kill ratio 70% or more, less than 90%) | 2 (weed kill ratio 20% or more, less than 40%) |  | 4 (weed kill ratio 70% or more, less than 90%) |  |  |  | 2 (weed kill ratio 20% or more, less than 40%) | 5 (weed kill ratio 90% or more, (practically complete withering)) | 4 (weed kill ratio 70% or more, less than 90%) | 5 (weed kill ratio 90% or more, (practically complete withering))
9 | CC(C)(C(=O)Nc1cncc(Cl)c1)N1COCN(c2ccccc2)C1=O [A-3-02] | 2 (weed kill ratio 20% or more, less than 40%) | 5 (weed kill ratio 90% or more, (practically complete withering)) | 2 (weed kill ratio 20% or more, less than 40%) | 3 (weed kill ratio 40% or more, less than 70%) | 5 (weed kill ratio 90% or more, (practically complete withering)) | 5 (weed kill ratio 90% or more, (practically complete withering)) | 5 (weed kill ratio 90% or more, (practically complete withering)) |  |  |  |  |  |  |  |  |  |  | 
10 | CC(C)(C(=O)Nc1cc(Br)cnc1F)N1COCN(c2ccccc2)C1=O [A-3-04] | 5 (weed kill ratio 90% or more, (practically complete withering)) | 5 (weed kill ratio 90% or more, (practically complete withering)) | 3 (weed kill ratio 40% or more, less than 70%) | 3 (weed kill ratio 40% or more, less than 70%) | 5 (weed kill ratio 90% or more, (practically complete withering)) | 5 (weed kill ratio 90% or more, (practically complete withering)) | 5 (weed kill ratio 90% or more, (practically complete withering)) |  |  |  |  |  |  |  |  |  |  | 
